Patent US20230139171A1 (SITA Information Networking Computing UK Limited, priority 2019, published 2023)

Columns and labels:
Format in all cases: cell-based
human TLR8 = molecular target: T1, human TLR8 (Homo sapiens, UniProt Q9NR97); experiment: TLR8 inhibition reporter assay (HEK-Blue cells, SEAP reporter, R848 stimulation); conditions: HEK-Blue cells overexpressing human TLR8, SEAP reporter, R848 15.9 μM; read-out: TLR8 IC50
T1 construct: host or cells: HEK-Blue cells
T1 sequence (Q9NR97 27-1041): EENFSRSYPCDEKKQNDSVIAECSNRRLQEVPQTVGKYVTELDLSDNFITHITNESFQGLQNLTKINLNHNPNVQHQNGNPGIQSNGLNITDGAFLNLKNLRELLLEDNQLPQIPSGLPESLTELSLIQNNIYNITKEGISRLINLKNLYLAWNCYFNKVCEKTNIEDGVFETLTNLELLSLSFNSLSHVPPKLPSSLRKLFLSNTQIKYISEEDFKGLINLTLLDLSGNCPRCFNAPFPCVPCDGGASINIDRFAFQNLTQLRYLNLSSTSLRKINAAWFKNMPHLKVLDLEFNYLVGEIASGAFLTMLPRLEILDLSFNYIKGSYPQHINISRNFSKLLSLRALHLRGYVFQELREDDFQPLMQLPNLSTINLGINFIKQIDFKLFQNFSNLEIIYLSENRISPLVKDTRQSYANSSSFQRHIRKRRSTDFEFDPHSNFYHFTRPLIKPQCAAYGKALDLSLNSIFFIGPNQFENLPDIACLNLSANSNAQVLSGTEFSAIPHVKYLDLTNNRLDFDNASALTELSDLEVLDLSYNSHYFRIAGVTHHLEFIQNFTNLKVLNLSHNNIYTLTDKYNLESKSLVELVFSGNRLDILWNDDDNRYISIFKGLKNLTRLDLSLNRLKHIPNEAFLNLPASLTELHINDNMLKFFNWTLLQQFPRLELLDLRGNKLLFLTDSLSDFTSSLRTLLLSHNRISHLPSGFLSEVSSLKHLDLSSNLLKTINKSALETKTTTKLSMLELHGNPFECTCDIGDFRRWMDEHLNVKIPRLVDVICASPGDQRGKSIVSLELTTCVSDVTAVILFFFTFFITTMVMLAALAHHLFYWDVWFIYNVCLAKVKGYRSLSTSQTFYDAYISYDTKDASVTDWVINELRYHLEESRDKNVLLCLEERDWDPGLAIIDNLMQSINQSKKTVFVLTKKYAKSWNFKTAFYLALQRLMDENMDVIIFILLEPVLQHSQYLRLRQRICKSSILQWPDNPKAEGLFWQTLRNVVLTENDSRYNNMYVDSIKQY
Procedure, shortened: (§1)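 Dose–response from 0.05 nM to 50 μM was run in HEK-Blue human TLR7, TLR8 and TLR9 reporter cells. After 30 min at room temperature with compound, ligand was added (TLR7 gardiquimod 7.5 μM; TLR8 R848 15.9 μM; TLR9 ODN2006 5 nM) and SEAP measured next day, at 22 h.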

human TLR7 = molecular target: T2, human TLR7 (Homo sapiens, UniProt Q9NYK1); experiment: TLR7 inhibition reporter assay (HEK-Blue cells, SEAP reporter, gardiquimod stimulation); conditions: HEK-Blue cells overexpressing human TLR7, SEAP reporter, gardiquimod 7.5 μM; read-out: TLR7 IC50
T2 construct: host or cells: HEK-Blue cells
T2 sequence (Q9NYK1 27-1049): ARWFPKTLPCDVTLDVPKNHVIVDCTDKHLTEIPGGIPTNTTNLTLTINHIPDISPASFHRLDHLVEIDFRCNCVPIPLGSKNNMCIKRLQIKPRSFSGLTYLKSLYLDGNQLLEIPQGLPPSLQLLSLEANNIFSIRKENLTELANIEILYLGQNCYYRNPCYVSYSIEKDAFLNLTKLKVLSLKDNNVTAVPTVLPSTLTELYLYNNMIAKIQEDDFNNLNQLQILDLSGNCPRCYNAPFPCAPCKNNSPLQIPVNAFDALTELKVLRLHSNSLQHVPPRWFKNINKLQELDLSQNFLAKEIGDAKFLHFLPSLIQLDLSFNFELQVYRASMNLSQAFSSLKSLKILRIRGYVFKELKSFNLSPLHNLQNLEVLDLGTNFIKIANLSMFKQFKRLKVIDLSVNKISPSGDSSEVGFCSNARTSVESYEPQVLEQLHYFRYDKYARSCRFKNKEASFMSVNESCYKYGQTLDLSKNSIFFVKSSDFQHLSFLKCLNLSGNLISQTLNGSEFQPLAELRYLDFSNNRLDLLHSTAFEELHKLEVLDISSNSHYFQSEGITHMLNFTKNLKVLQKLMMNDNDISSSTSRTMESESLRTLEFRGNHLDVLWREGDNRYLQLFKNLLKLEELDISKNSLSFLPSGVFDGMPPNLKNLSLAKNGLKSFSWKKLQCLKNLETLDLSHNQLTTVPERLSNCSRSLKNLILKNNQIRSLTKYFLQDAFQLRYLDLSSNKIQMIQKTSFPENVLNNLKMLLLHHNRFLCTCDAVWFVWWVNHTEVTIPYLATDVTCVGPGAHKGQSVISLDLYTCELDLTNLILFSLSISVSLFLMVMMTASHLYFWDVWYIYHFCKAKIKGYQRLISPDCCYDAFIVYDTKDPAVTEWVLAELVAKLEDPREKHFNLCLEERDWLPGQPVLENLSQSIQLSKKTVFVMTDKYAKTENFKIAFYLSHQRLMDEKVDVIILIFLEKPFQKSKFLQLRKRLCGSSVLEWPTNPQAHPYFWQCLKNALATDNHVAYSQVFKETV
Procedure, shortened: as §1

human TLR9 = molecular target: T3, human TLR9 (Homo sapiens, UniProt Q9NR96); experiment: TLR9 inhibition reporter assay (HEK-Blue cells, SEAP reporter, ODN2006 stimulation); conditions: HEK-Blue cells overexpressing human TLR9, SEAP reporter, ODN2006 5 nM
T3 construct: host or cells: HEK-Blue cells
T3 sequence (Q9NR96 26-1032): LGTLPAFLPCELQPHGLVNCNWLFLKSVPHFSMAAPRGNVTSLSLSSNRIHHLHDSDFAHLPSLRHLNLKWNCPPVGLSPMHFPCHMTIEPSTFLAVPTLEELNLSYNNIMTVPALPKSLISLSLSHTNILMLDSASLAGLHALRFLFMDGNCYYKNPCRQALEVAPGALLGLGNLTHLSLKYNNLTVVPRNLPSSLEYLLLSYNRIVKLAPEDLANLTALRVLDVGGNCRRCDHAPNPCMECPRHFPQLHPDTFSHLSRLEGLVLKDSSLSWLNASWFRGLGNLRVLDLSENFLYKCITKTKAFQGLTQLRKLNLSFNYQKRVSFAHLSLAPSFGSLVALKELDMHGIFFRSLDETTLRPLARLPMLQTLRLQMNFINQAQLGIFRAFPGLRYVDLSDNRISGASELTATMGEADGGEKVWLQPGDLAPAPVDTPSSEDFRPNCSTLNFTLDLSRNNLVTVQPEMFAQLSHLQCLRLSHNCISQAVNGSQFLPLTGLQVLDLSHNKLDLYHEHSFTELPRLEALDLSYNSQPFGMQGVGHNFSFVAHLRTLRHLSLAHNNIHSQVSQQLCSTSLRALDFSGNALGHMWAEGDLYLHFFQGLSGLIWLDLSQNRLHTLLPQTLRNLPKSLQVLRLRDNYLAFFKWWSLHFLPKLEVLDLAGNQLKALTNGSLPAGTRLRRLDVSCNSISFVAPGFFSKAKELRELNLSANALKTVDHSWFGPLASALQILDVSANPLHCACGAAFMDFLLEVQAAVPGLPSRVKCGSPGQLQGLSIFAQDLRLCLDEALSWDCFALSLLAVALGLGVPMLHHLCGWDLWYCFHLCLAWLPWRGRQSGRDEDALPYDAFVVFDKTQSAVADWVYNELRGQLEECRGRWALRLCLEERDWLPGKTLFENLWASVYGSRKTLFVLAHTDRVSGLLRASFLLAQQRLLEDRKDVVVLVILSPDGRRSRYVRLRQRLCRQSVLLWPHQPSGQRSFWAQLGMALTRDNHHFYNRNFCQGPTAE
Procedure, shortened: as §1

SMILES	IC50 (human TLR8)	IC50 (human TLR7)	IC50 (human TLR9)
COc1cc(-c2[nH]c3sc(C4CCC(N5CCS(=O)(=O)CC5)CC4)nc3c2C(C)C)cn2ncnc12 (single isomer, unassigned) [Example 83, 4-(4-(6-isopropyl-5-(8-methoxy-[1,2,4]triazolo[1,5-a]pyridin-6-yl)-4H-pyrrolo[3,2-d]thiazol-2-yl)cyclohexyl)thiomorpholine 1,1-dioxide]	238 nM	6.33 nM	> 50000 nM
COc1cc(-c2[nH]c3sc(C4CCC(NCC(C)(C)O)CC4)nc3c2C(C)C)cn2ncnc12 (single isomer, unassigned) [Example 84, 1-((4-(6-isopropyl-5-(8-methoxy-[1,2,4]triazolo[1,5-a]pyridin-6-yl)-4H-pyrrolo[3,2-d]thiazol-2-yl)cyclohexyl)amino)-2-methylpropan-2-ol]	0.84 nM	0.9 nM	9110 nM
COc1cc(-c2[nH]c3sc(C4CCC(NCC(C)(C)O)CC4)nc3c2C(C)C)cn2ncnc12 (single isomer, unassigned) [Example 85, 1-((4-(6-isopropyl-5-(8-methoxy-[1,2,4]triazolo[1,5-a]pyridin-6-yl)-4H-pyrrolo[3,2-d]thiazol-2-yl)cyclohexyl)amino)-2-methylpropan-2-ol]	17.5 nM	2.66 nM	6910 nM
COc1cc(-c2[nH]c3sc(C4CCC(NCC(C)(C)OC)CC4)nc3c2C(C)C)cn2ncnc12 (single isomer, unassigned) [Example 86, 4-(6-isopropyl-5-(8-methoxy-[1,2,4]triazolo[1,5-a]pyridin-6-yl)-4H-pyrrolo[3,2-d]thiazol-2-yl)-N-(2-methoxy-2-methylpropyl)cyclohexan-1-amine]	0.7 nM	1.34 nM	6420 nM
COc1cc(-c2[nH]c3sc(C4CCC(NCC(C)(C)OC)CC4)nc3c2C(C)C)cn2ncnc12 (single isomer, unassigned) [Example 87, 4-(6-isopropyl-5-(8-methoxy-[1,2,4]triazolo[1,5-a]pyridin-6-yl)-4H-pyrrolo[3,2-d]thiazol-2-yl)-N-(2-methoxy-2-methylpropyl)cyclohexan-1-amine]	11.8 nM	1.73 nM	7790 nM
COc1cc(-c2[nH]c3sc(C4CCC(N(C)C(C)C)CC4)nc3c2C(C)C)cn2ncnc12 (single isomer, unassigned) [Example 88, N-isopropyl-4-(6-isopropyl-5-(8-methoxy-[1,2,4]triazolo[1,5-a]pyridin-6-yl)-4H-pyrrolo[3,2-d]thiazol-2-yl)-N-methylcyclohexan-1-amine]	1.84 nM	0.81 nM	4450 nM

Continued, values first:

IC50 (human TLR8)	IC50 (human TLR7)	IC50 (human TLR9)	SMILES
18.9 nM	1.48 nM	4100 nM	COc1cc(-c2[nH]c3sc(C4CCC(N(C)C(C)C)CC4)nc3c2C(C)C)cn2ncnc12 (single isomer, unassigned) [Example 89, N-isopropyl-4-(6-isopropyl-5-(8-methoxy-[1,2,4]triazolo[1,5-a]pyridin-6-yl)-4H-pyrrolo[3,2-d]thiazol-2-yl)-N-methylcyclohexan-1-amine]
1.13 nM	0.8 nM	11100 nM	COc1cc(-c2[nH]c3sc(C4CCC(NC[C@@H](F)C(C)(C)O)CC4)nc3c2C(C)C)cn2ncnc12 (single isomer, unassigned) [Example 90]
8.12 nM	4.01 nM	6720 nM	COc1cc(-c2[nH]c3sc(C4CCC(NC[C@@H](F)C(C)(C)O)CC4)nc3c2C(C)C)cn2ncnc12 (single isomer, unassigned) [Example 91]
2.34 nM	0.31 nM	4110 nM	COc1cc(-c2[nH]c3sc(C4CCC(N)CC4)nc3c2C(C)C)cn2ncnc12 (single isomer, unassigned) [Example 92, 4-(6-isopropyl-5-(8-methoxy-[1,2,4]triazolo[1,5-a]pyridin-6-yl)-4H-pyrrolo[3,2-d]thiazol-2-yl)cyclohexan-1-amine]
15.6 nM	1.89 nM	12000 nM	COc1cc(-c2[nH]c3sc(C4CCC(N)CC4)nc3c2C(C)C)cn2ncnc12 (single isomer, unassigned) [Example 93, 4-(6-isopropyl-5-(8-methoxy-[1,2,4]triazolo[1,5-a]pyridin-6-yl)-4H-pyrrolo[3,2-d]thiazol-2-yl)cyclohexan-1-amine]
3.14 nM	1.94 nM	40700 nM	CCC1(NC2CCC(c3nc4c(C(C)C)c(-c5cc(OC)c6ncnn6c5)[nH]c4s3)CC2)COC1 (single isomer, unassigned) [Example 94, 3-ethyl-N-(4-(6-isopropyl-5-(8-methoxy-[1,2,4]triazolo[1,5-a]pyridin-6-yl)-4H-pyrrolo[3,2-d]thiazol-2-yl)cyclohexyl)oxetan-3-amine]
